Data from US20090005396A1, “Use of Pyrazolyl-Pyrimidine Derivatives in the Treatment of Pain” (ASTRAZENECA AB, priority 2005, published 2009).
pIC50: −log10 of the molar value.

Legend:
human TrkA kinase = target: T1, human TrkA kinase (Homo sapiens, UniProt P04629); assay: TrkA kinase assay (AlphaScreen); type: biochemical; details: intracellular domain of His-tagged human TrkA, 20 μM ATP (=Km)
T1 construct: The intracellular domain of a His-tagged human TrkA kinase; His; made in house; host or cells: High Five insect cells
T1 sequence (P04629 440-796 limits assumed): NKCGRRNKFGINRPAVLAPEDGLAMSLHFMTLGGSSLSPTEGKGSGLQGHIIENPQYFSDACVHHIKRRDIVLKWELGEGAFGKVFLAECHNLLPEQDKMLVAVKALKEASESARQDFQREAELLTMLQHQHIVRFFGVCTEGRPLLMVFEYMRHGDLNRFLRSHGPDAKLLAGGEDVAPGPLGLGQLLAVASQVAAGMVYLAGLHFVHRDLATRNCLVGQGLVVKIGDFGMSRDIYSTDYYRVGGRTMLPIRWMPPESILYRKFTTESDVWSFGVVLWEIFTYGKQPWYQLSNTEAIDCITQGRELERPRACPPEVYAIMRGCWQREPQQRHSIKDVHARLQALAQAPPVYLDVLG
Protocol: TrkA kinase activity is measured in 384-well format using AlphaScreen technology. […] The intracellular domain of a His-tagged human TrkA kinase was expressed in High Five cells. The kinase was incubated with ATP and the biotinylated substrate for 15 minutes at room temperature. The reactions were then stopped by the addition of EDTA, anti-phosphotyrosine antibody (PT-100) coated acceptor beads and streptavidin coated donor beads. After 2 h of incubation in the dark at room temperature, the product was detected using a Fusion Alpha instrument. […] Termination/Detection conditions: 25 mM HEPES pH 7.4, 100 mM NaCl, 48 mM EDTA, 0.1% BSA and 20 μg/ml of donor and acceptor beads.
(§1) When tested in the above in-vitro assay the Trk inhibitory activity of the following examples was measured at the following IC50s.

human TrkB kinase = target: T2, human TrkB kinase (Homo sapiens, UniProt Q16620); assay: TrkB kinase assay (HTRF); type: biochemical; details: intracellular domain of HIS-tagged human TrkB
T2 construct: The intracellular domain of a HIS-tagged human TrkB kinase; HIS; made in house; host or cells: SF9 insect cells
T2 sequence (Q16620 455-822 limits assumed): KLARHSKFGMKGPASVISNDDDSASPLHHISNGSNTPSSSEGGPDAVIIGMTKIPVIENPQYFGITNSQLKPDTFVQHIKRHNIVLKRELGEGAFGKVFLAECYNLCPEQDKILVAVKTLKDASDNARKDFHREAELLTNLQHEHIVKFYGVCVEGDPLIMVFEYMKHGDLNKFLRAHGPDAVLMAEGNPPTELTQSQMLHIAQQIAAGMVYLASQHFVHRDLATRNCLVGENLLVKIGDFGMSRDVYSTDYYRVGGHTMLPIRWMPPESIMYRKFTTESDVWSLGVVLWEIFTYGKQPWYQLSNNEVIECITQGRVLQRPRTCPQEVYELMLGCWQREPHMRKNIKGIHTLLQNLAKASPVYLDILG
Protocol: TrkB kinase activity is being measured against its ability to phosphorylate synthetic tyrosine residues within a generic polypeptide substrate using homogenous time-resolved fluorescence (HTRF) technology. The intracellular domain of a HIS-tagged human TrkB kinase was expressed in SF9 cells and purified using standard nickel column chromatography. After the kinase is incubated with a biotinylated substrate and ATP for 50 minutes at room temperature, the kinase reaction is stopped by the addition of 60 mM EDTA. The reaction is performed in 384 well microtitre plates and reaction products are detected with the addition of strepavidin-linked and phosphotyrosine-specific antibodies using the Tecan Ultra Evolution Microplate Fluometer after an additional 3-hour incubation at room temperature.
as §1

[1] = test system: carrageenan monoarthritis; assay: Rat carrageenan test (carrageenan monoarthritis, pain score); type: in vivo; details: oral, 80 μmol/kg
Protocol: The compounds used according to the invention when given by systemic administration to mice or rats, specifically reduce pain in the rat carrageenan test as described by Tonussi and Ferreira (Pain 1992, 48, 421-427).
Description of the Rat Carrageenan Test
Experimental procedures. Under isoflurane anesthesia, 40 μL of carrageenan (7.5 mg/mL) was injected into the left tibio-tarsal (ankle) joint from the dorsal side. The injection causes a localized inflammation increasing to a maximum between 4 h to 6 h after induction, after which it gradually decreases, and the animals display decreased weight bearing on and guarding of the limb.
(2R)-2-{[5-Chloro-4-(1H-pyrazol-5-ylamino)pyrimidin-2-yl]amino}-2-(4-fluorophenyl)ethanol was administered 30 min before induction of monoarthritis. The rats were placed in an acrylic chamber and videotaped for 5 min from underneath, 2 h, 2 h30, 3 h, 3 h30, 5 h after drug administration. Subsequently, the weight the rats were willing to put on the injected paw was scored as described in the table below, and defined as the “Pain Score”: […]
Data analysis. Two Way Repeated Measures ANOVA (one factor repetition) followed by Newmans-Keuls method for all pairwise multiple comparison procedures (SigmaStat® 2.03) was used to evaluate group effects. The level of significance was set at p<0.05.

[2] = test system: mechanical hypersensitivity; details: injected into rats with pancreatite; cited from earlier work

C[C@H](Nc1ncc(Cl)c(Nc2cc(C3CC3)n[nH]2)n1)c1ccc(F)cc1 [5-Chloro-N^4-(5-cyclopropyl-1H-pyrazol-3-yl)-N^2-[(1S)-1-(4-fluorophenyl)ethyl]pyrimidine-2,4-diamine]
pIC50 (human TrkA kinase): 7.46
pIC50 (human TrkB kinase): 6.85

OC[C@H](Nc1ncc(F)c(Nc2cc(C3CC3)[nH]n2)n1)c1ccc(F)cc1 [(2R)-2-({4-[(5-Cyclopropyl-1H-pyrazol-3-yl)amino]-5-fluoropyrimidin-2-yl}amino)-2-(4-fluorophenyl)ethanol]
pIC50 (human TrkA kinase): 7.12
pIC50 (human TrkB kinase): 6.59

OC[C@H](Nc1ncc(Cl)c(Nc2ccn[nH]2)n1)c1ccc(F)cc1 [(2R)-2-{[5-Chloro-4-(1H-pyrazol-5-ylamino)pyrimidin-2-yl]amino}-2-(4-fluorophenyl)ethanol]
signs of side-effects [1]: did not show signs of side-effects
pain score induced by carrageenan monoarthritis ([1]; given 30 min before induction, within 5 hours after administration, p<0.05): significantly reduced

OCC[C@H](Nc1ncc(Cl)c(Nc2cc(C3CC3)[nH]n2)n1)c1ccc(F)cc1 [(3S)-3-({4-[(5-Cyclopropyl-1H-pyrazol-3-yl)amino]-5-chloropyrimidin-2-yl}amino)-3-(4-fluorophenyl)propan-1-ol]
pIC50 (human TrkA kinase): 7.41
pIC50 (human TrkB kinase): 6.66

COC(=O)[C@@]1(O)C[C@H]2O[C@]1(C)n1c3ccccc3c3c4c(c5c6ccccc6n2c5c31)C(=O)NC4 [Compound K252a, K252a]
mechanical hypersensitivity [2]: could suppress mechanical hypersensitivity
